Here are results for 58 compounds from ChEMBL document CHEMBL1201862, “PubChem BioAssay data set” (2004).

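Following 48 hours of exposure in 96-well plates, responses at five concentrations were used to interpolate endpoints linearly. Here, GI50 denotes the concentration required for 50% inhibition of growth.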 Calls of active or inactive are those of the source. No stated cut-off is given here; in the data, active = GI50 up to about 1.1 µM and inactive = higher. Where only a bound is given, the exact number is not on record here.

Holding throughout (test): growth of human tumour cells (NCI), 48 h
Assay [1] concerns Hs-578T.
Assay [2] deals with BT-549.
Assay [3] concerns DMS-114.
For assay [4], the system named is HOP-18.
The subject of assay [5] is M19-MEL.
The subject of assay [6] is DLD-1.
Assay [7] has as its system DMS-273.
Assay [8] deals with XF498.

Consider `COc1ccc2c(c1)c1c(n2CCN(C)C)-c2cccc(OC)c2CC1`, for which the GI50 was 16.3 µM (inactive) in assay [1] and 20 µM (inactive) in assay [2].

Regarding `CO[C@H]1O[C@@H]2OC3(C)CCC4[C@H](C)CCC([C@H]1C)[C@]42OO3` (stereo partly drawn), in assay [1], the GI50 was > 100 µM (inactive).

As for `CCOC(=O)C1=C(Nc2cccc(OC)c2)OCC1=O`, in assay [1], the GI50 was > 100 µM (inactive).

With `COc1cc2c3c4[n+](cc2c(OC)c1OC)CCC4CCC3` (stereo not drawn), the GI50 in assay [1] and in assay [2] was > 100 µM (inactive) throughout.

With `COc1ccccc1N/C(=C\C(=O)C(=O)NC12CC3CC(CC(C3)C1)C2)c1ccccc1`, in assay [1], the GI50 is > 10 µM (inactive).

`COC(=O)c1cc(=O)nc2sc3cccc(C)c3n12`: the GI50 is 56.2 µM (inactive) in assay [1] and 55.6 µM (inactive) in assay [2].

Consider `COc1ccc(NC(=O)CCc2cc(-c3ccc(O)c(OC)c3)nc(NC#N)n2)cc1`, for which the GI50 in assay [3], in assay [4], in assay [5] and in assay [6] was > 100 µM (inactive) each time.

Turning to `COC(=O)c1c(O)ccc2c1c1c(n2Cc2ccc(OC)cc2)C(=O)c2ccccc2C1`, the GI50 in assay [1] and in assay [2] was > 100 µM (inactive) each time.

As for `Cc1ccc(NC(=O)c2ccc(OP(=O)(O)Nc3ccc(C)cc3)cc2)cc1`, the figures for the GI50 in assay [1] and in assay [2] were 92.7 µM (inactive) and > 100 µM (inactive), respectively.

Consider `Cc1ccc(NC(=S)C#N)cc1Cl`, for which the GI50 in assay [2] was 53 µM (inactive).

Turning to `C=C(C)[C@@H](C(=O)OC)N1C(=O)c2ccccc2C1=O`, the GI50 in assay [1] and in assay [2] was > 100 µM (inactive) throughout.

`C=C1CC[C@H]2C(C)=CC[C@H]3C(=C)C(=O)O[C@@H]3[C@@H]12` [EREMANTHIN]: the GI50 in assay [2] is > 100 µM (inactive).

With `CO/N=C(/C(=O)Nc1c[n+](CC(=O)[O-])cs1)c1csc(N)n1`, the GI50 in assay [4], in assay [6], in assay [7] and in assay [8] was > 100 µM (inactive) in each case.

Consider `CC(C)=CC1C(C(=O)Oc2ccccc2C(C)C)C1(C)C` (stereo not drawn), for which the GI50 in assay [1] was 39.9 µM (inactive); in assay [2], 30 µM (inactive).

Consider `OC(COc1ccccc1)CN1CCCCC1` (stereo not drawn), for which the GI50 in assay [1] and in assay [2] was > 100 µM (inactive) each time.

`Cc1cc(O)nc(NN2C(Cl)C(=O)C2c2ccc(O)cc2)n1` (stereo not drawn): the GI50 in assay [1] is 14.5 µM (inactive); in assay [3] it was 7.35 µM (inactive); in assay [4] it was 14.6 µM (inactive); in assay [5], 10.5 µM (inactive); in assay [7] it was 5.32 µM (inactive); in assay [2], 9.1 µM (inactive).

Regarding `CCOC(=O)C1CCC(=O)N1C(=O)c1ccc(Cl)cc1` (stereo not drawn), the GI50 in assay [1] and in assay [2] was > 100 µM (inactive) in each case.

As for `CC1(C)C2CC(=O)C1(C)C(OCc1ccccc1)C2` (stereo not drawn), the values for the GI50 in assay [1] and in assay [2] were 22 µM (inactive) and 54.6 µM (inactive), respectively.

Take `N#Cc1cc(Sc2ccc(N)c(C#N)c2)ccc1N`: the GI50 in assay [1] is 12.6 µM (inactive); in assay [2], 19 µM (inactive).

On to `CCCCCCOc1ccc(NC2=C(Cl)C(=O)c3cccnc3C2=O)cc1`, for which the GI50 in assay [1] is 8.02 µM (inactive); in assay [2], 3.22 µM (inactive).

`Cn1c(=O)cc(NCCc2ccccc2)[nH]c1=O`: the GI50 is 14.1 µM (inactive) in assay [1] and 47.8 µM (inactive) in assay [2].

With `NC(=O)CC[C@H]1C(=O)N=C(N)N1C(=O)OCc1ccccc1`, the GI50 in assay [1] and in assay [2] was > 100 µM (inactive) in each case.

With `COc1ccc(-c2nc(-c3cnccn3)n(C3OC(CO)C(O)C(O)C3O)n2)cc1` (stereo not drawn), the GI50 in assay [2] is > 100 µM (inactive).

As for `Cc1c2c(c(C)n1-c1ccccc1)C(=O)N(CCN1CCN(c3cccc(C(F)(F)F)c3)CC1)C2=O`, the GI50 in assay [1] and in assay [2] was > 100 µM (inactive) throughout.

Regarding `OCC1CCCC(n2cnc3c(S)ncnc32)O1` (stereo not drawn), the GI50 in assay [1] and in assay [2] was > 100 µM (inactive) throughout.

On to `CS(=O)(=O)C1(Br)S(=O)(=O)OCCOS1(=O)=O`, for which the GI50 in assay [3], in assay [5], in assay [6], in assay [7] and in assay [8] was > 100 µM (inactive) throughout.

Turning to `Cn1c(O)c(C(=O)Nc2cccs2)c(=O)[nH]c1=S`, the GI50 was 14.5 µM (inactive) in assay [3], 0.0865 µM (active) in assay [4], 19.1 µM (inactive) in assay [5] and 21.2 µM (inactive) in assay [6].

`OCCNCO`: the GI50 in assay [5], in assay [7] and in assay [8] was > 100 µM (inactive) throughout.

For the compound `CCCCc1c2c(nc3c1CCC/C3=C\c1ccccc1)C(=O)CCC2`, the GI50 in assay [3] was 20.7 µM (inactive); in assay [4], 25.6 µM (inactive); in assay [5], 18.2 µM (inactive); in assay [7], 26.1 µM (inactive); in assay [8], 12.1 µM (inactive).

`N#CC(C(=O)C(=O)Nc1ccccc1)c1ccccc1` (stereo not drawn): the GI50 in assay [5], in assay [6], in assay [7] and in assay [8] was > 100 µM (inactive) each time.

As for `c1ccc(/C(=N/Nc2cnccn2)c2ncccn2)cc1`, the GI50 in assay [1] was 23.1 µM (inactive); in assay [2] it was > 100 µM (inactive).

Regarding `CCOC(=O)/C=C(/C(=O)OCC)n1cc(C)c(=O)[nH]c1=O`, the results for the GI50 in assay [1] and in assay [2] were 17.7 µM (inactive) and 10.3 µM (inactive), respectively.

Regarding `COc1cc(CSc2ccc(O)cc2)cc(OC)c1OC`, the GI50 in assay [1] was 41.3 µM (inactive); in assay [2] it was 16.4 µM (inactive).

As to `OC(CCN1CCN(CCOC(c2ccc(F)cc2)c2ccc(F)cc2)CC1)c1ccccc1` (stereo not drawn), the GI50 in assay [1] is 16 µM (inactive); in assay [2], 14.1 µM (inactive).

As for `c1ccc(CCN2CCOCC2)nc1`, the GI50 in assay [1] and in assay [2] was > 100 µM (inactive) throughout.

With `O=[N+]([O-])C1CC/C(=N/O)c2nonc21` (stereo not drawn), the GI50 in assay [1] and in assay [2] was > 10 µM (inactive) throughout.

`COc1ccc(-c2oc(/C=N/c3ccccc3)c([N+](=O)[O-])c2-c2ccc(OC)c(OC)c2)cc1OC`: the GI50 in assay [3], in assay [5], in assay [6], in assay [7] and in assay [8] was > 100 µM (inactive) throughout.

Turning to `c1cncc(CSc2nc3ccccc3nc2-c2cccs2)c1`, the GI50 in assay [4] is > 100 µM (inactive); in assay [5] it was > 100 µM (inactive); in assay [6], > 100 µM (inactive); in assay [7], > 100 µM (inactive); in assay [8], 35.3 µM (inactive).

As for `CC(C)(C)[Si](C)(C)OCC1OC(n2cnc3c(N)ncnc32)C(O)C1O` (stereo not drawn), the GI50 was 44.5 µM (inactive) in assay [1] and 69.5 µM (inactive) in assay [2].

`COc1ccc2[nH]c(Cl)c(/C=C3/C(=O)N(c4ccccc4)c4ccccc43)c2c1`: the GI50 in assay [1] is 4.74 µM (inactive); in assay [2], 2.67 µM (inactive).

For the compound `Cc1cc2c(cc1C)C(=O)C1(C2)Cc2c(ccc(C)c2C)C1=O` (stereo not drawn), the GI50 in assay [1] was 42.5 µM (inactive); in assay [2], > 100 µM (inactive).

For `Cc1cc(C)c2c(O)cc(-c3ccc4ccccc4c3)nc2n1`, the GI50 in assay [1] is 16.4 µM (inactive); in assay [2] it was 40.5 µM (inactive).

With `COC(=O)C1=CCC[C@H]2[C@@]1(COC(C)=O)CC[C@@H](C)[C@]2(C)CC(=O)c1ccoc1`, the GI50 is 13.4 µM (inactive) in assay [1] and 10.9 µM (inactive) in assay [2].

For the compound `N#Cc1ccc2oc3ccc(C#N)cc3c(=O)c2c1`, the GI50 in assay [2] was 25.5 µM (inactive).

On to `C=C1C(=O)OC2CC(C)C(/C=C/C(C)=O)=CCC12` (stereo not drawn), for which the GI50 in assay [1] and in assay [2] was > 100 µM (inactive) in each case.

For `O=C(NCC(O)COc1ccccc1)c1ccccc1O` (stereo not drawn), the GI50 in assay [2] was 27.7 µM (inactive).

On to `Cc1ccc(S(=O)(=O)NC(=O)C2=C3SCCN3C(=O)N(S(=O)(=O)c3ccc(C)cc3)C2c2ccccc2)cc1` (stereo not drawn), for which the GI50 in assay [1] is 48.4 µM (inactive); in assay [2] it was > 100 µM (inactive).

For `O=C(CSCC(=O)N/N=C/c1cccc(OCc2ccccc2)c1)N/N=C/c1cccc(OCc2ccccc2)c1`, the figures for the GI50 in assay [1] and in assay [2] were > 100 µM (inactive) and 68.1 µM (inactive), respectively.

On to `CC1=NN(c2ccccc2)C(=O)C1C(=O)C(=O)Nc1ccc(C)cc1C` (stereo not drawn), for which the GI50 in assay [1], in assay [3], in assay [4], in assay [5], in assay [6] and in assay [7] was > 100 µM (inactive) in each case.

Turning to `COc1c(C)c(C/C=C(\C)CCCC(C)CCCC(C)CCCC(C)C)c(OC)c2ccccc12` (stereo not drawn), the GI50 in assay [1] and in assay [2] was > 100 µM (inactive) in each case.

For `CN1C(=O)C(CC=O)(C(C)(C)C)c2ccccc21` (stereo not drawn), the GI50 in assay [1] was 56.6 µM (inactive).

For the compound `C=C(c1ccccc1)c1cc2c(=O)[nH]ccc2n1C`, the GI50 in assay [3] is 19.1 µM (inactive); in assay [5] it was 38.6 µM (inactive); in assay [6] it was 31.9 µM (inactive); in assay [7], 27.5 µM (inactive); in assay [8] it was 30.5 µM (inactive).

In the case of `CCCCn1c2c(n(CCCC)c1=S)-c1c(n(CCCC)c(=S)n1CCCC)SSc1c(n(CCCC)c(=S)n1CCCC)-c1c(n(CCCC)c(=S)n1CCCC)SSc1c(n(CCCC)c(=S)n1CCCC)-c1c(n(CCCC)c(=S)n1CCCC)SS2`, the GI50 in assay [1] is 3.25 µM (inactive); in assay [2], 3.55 µM (inactive).

For the compound `Nc1ccc2c(SCCSc3c4ccccc4nc4cc(N)ccc34)c3ccccc3nc2c1`, the GI50 in assay [1] and in assay [2] was > 100 µM (inactive) each time.

As for `COc1cc2c(c(OC3OC(CO)C(O)C(O)C3O)c1)C(=O)CC(c1ccc(O)cc1)O2` (stereo not drawn), the GI50 in assay [1] and in assay [2] was > 100 µM (inactive) each time.

On to `NNc1nnc(CCCCCCCCc2nnc(NN)n2N)n1N`, for which the GI50 in assay [2] is 26.1 µM (inactive).

Take `CCCCCNC(=O)c1cc2cc(CCl)ccc2oc1=O`: the GI50 in assay [1] is 6.37 µM (inactive); in assay [2], 6.49 µM (inactive).

`Cc1nc(N)nc(S)c1CCCNc1ccccc1`: the values for the GI50 in assay [1] and in assay [2] were > 100 µM (inactive) and 70 µM (inactive), respectively.
